Data set [1] can be described thus: Pharmacokinetics following a single oral dose in male Sprague-Dawley rats. To be noted: rat, single po dose 10 mg/kg, plasma. The data set is classed as in vivo. On the procedure:
Pharmacokinetic studies of the compounds in Table 16 were performed to assess the pharmacokinetics following a single oral dose in male Sprague-Dawley rats. […] Following dosing, blood samples were collected over a period of 24 hours. Sample times were 5, 15 and 30 minutes then 1, 2, 4, 6, 8, 12 and 24 hours. Following collection, blood samples were centrifuged and the plasma fraction analysed for concentration of test compound by LCMS.

The target of a further data set is Factor XIIa (Homo sapiens (Human), UniProt P00748). The experiment in a line: Determination of enzyme selectivity, Factor XIIa. In kind it is biochemical. Particulars: substrate at Km concentration.
The target of the next data set is Human KLK1 (Homo sapiens (Human), UniProt P06870). The experiment in a line: Determination of the IC50 for KLK1 (fluorogenic substrate H-DVal-Leu-Arg-AFC). In kind it is biochemical. To be noted: 37° C. As to the method: Determination of the IC50 for KLK1
Human KLK1 (Callbiochem) was incubated at 37° C. with the fluorogenic substrate H-DVal-Leu-Arg-AFC and various concentrations of the test compound. Residual enzyme activity (initial rate of reaction) was determined by measuring the change in […] at 410 nm and the IC50 value for the test compound was determined.

Another data set has as its target Human plasma kallikrein (Homo sapiens (Human), UniProt P03952). The experiment in a line: Determination of the IC50 for plasma kallikrein (fluorogenic substrate H-DPro-Phe-Arg-AFC). Particulars: 37° C., read-out: IC50 (human PKaI). In kind it is biochemical. As to the method: Determination of the IC50 for Plasma Kallikrein
Human plasma kallikrein (Protogen) was incubated at 37° C. with the fluorogenic substrate H-DPro-Phe-Arg-AFC and various concentrations of the test compound. Residual enzyme activity (initial rate of reaction) was determined by measuring the change in […] at 410 nm and the IC50 value for the test compound was determined.

The next data set addresses trypsin. In words: Determination of enzyme selectivity, trypsin. The data set is classed as biochemical, human. Particulars: substrate at Km concentration. On the procedure:
(§1) Determination of Enzyme Selectivity
(§2) Human serine protease enzymes plasmin, thrombin, trypsin, Factor Xa and Factor XIIa were assayed for enzymatic activity using an appropriate fluorogenic substrate. Protease activity was measured by monitoring the accumulation of liberated fluorescence from the substrate over 5 minutes. The linear rate of fluorescence increase per minute was expressed as percentage (%) activity. The Km for the cleavage of each substrate was determined by standard transformation of the Michaelis-Menten equation.

In another data set the target is plasmin (Homo sapiens (Human), UniProt P00747). The experiment in a line: Determination of enzyme selectivity, plasmin. The data set is classed as biochemical. To be noted: substrate at Km concentration. As to the method:
as §1, §2

In the next data set the target is thrombin (Homo sapiens (Human), UniProt P00734). In words: Determination of enzyme selectivity, thrombin. The data set is classed as biochemical. To be noted: substrate at Km concentration. On the procedure:
as §1, §2

Another data set has as its system diabetic rats. Particulars: cited from earlier work.
For data set [2] the following is noted: in vivo; cited from earlier work.
For data set [3] the following is noted: in vivo; cited from earlier work. The source holds these as a separate data set.

The source of these data is patent publication US9533987B2, “Heterocyclic derivates” (KALVISTA PHARMACEUTICALS LIMITED, priority 2013, dated 2017).

Sequence of Human plasma kallikrein (P03952 391-638): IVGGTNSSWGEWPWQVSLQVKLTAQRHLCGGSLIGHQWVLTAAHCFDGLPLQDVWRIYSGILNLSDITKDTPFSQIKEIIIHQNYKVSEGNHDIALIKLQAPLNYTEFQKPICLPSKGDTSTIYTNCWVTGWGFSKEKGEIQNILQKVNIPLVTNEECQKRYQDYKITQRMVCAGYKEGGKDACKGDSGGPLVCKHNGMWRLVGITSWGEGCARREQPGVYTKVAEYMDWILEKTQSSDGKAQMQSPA
Sequence of Human plasma kallikrein (P03952 20-390 partner): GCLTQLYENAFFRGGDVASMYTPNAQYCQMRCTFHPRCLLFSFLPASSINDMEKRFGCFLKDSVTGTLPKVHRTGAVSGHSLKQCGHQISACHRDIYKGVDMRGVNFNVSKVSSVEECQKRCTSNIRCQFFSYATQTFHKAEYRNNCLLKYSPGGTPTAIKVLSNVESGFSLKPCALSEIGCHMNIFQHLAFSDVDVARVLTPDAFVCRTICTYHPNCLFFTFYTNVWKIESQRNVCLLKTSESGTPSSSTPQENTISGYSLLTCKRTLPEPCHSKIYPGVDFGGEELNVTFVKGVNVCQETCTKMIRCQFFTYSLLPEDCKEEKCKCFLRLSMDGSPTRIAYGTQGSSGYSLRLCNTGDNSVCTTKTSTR
Sequence of Factor XIIa (P00748 373-615): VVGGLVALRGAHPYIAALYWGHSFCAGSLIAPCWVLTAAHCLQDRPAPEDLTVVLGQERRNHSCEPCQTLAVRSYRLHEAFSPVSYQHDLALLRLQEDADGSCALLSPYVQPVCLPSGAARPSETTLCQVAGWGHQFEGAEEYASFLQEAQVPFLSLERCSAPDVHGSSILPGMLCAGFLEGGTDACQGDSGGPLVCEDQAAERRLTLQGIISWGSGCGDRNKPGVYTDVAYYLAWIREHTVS
Sequence of Human KLK1 (P06870 25-262): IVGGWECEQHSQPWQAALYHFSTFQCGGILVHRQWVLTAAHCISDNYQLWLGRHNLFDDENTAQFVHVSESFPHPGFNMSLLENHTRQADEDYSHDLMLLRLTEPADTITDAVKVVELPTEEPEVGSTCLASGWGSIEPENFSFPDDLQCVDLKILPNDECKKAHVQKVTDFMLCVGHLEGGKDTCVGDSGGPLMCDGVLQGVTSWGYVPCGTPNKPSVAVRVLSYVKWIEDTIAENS
Sequence of plasmin (P00747 581-810): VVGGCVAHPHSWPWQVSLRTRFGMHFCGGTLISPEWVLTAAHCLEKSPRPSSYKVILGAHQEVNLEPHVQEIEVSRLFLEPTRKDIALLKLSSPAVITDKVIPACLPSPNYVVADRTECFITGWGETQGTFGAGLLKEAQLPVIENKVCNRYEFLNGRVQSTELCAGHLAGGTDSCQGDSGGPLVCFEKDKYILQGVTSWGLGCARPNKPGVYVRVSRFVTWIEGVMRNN
Sequence of plasmin (P00747 97-580 partner): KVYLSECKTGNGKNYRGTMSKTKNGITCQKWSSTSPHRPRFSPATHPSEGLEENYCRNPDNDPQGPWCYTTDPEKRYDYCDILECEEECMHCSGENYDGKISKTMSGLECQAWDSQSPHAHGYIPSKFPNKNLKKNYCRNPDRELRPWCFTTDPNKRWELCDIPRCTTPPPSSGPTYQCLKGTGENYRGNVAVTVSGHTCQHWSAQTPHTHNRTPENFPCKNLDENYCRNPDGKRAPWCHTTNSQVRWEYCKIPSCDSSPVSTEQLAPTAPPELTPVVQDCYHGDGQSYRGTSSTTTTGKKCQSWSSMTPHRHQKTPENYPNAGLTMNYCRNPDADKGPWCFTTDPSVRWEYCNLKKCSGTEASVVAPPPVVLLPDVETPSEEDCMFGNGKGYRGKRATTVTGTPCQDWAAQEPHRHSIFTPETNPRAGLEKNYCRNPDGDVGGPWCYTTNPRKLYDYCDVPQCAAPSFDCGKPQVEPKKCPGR

In data set [1], `Cc1cnn(Cc2ccc(Cn3cc(C(=O)NCc4ccc5c(N)nccc5c4)c(C(F)(F)F)n3)cc2)c1` [Example 36, 1-[4-(4-Methyl-pyrazol-1-ylmethyl)-benzyl]-3-trifluoromethyl-1H-pyrazole-4-carboxylic acid (1-amino-isoquinolin-6-ylmethyl)-amide] gave a maximum concentration (Cmax) of 0.642 µg/mL. Also, the Tmax in [1] is 1.25 h. Also, the half-maximal inhibitory concentration (IC50) was more than 10000 nM at Factor XIIa, more than 40 µM at Human KLK1 and 0.00216 µM on Human plasma kallikrein.
In the case of `Cc1cc(C(=O)NCc2ccc3c(N)nccc3c2)c(C)n1Cc1csc(-c2ccccc2)n1` [Example 1, 2,5-Dimethyl-1-(2-phenyl-thiazol-4-ylmethyl)-1H-pyrrole-3-carboxylic acid (1-amino-isoquinolin-6-ylmethyl)-amide], the half-inhibitory concentration (IC50) at trypsin was more than 40000 nM; on Factor XIIa it was more than 10000 nM; against Human KLK1, more than 10 µM; against plasmin, more than 40000 nM; on Human plasma kallikrein, 0.0547 µM; against thrombin, more than 40000 nM.
Take `N=C(N)c1ccc(CNC(=O)c2cnn(Cc3ccccc3)c2)cc1` [ASP-440]: in the data set with diabetic rats, the “effect on retinal vascular permeability and retinal blood flow abnormalities” value is “ameliorated both retinal vascular permeability and retinal blood flow abnormalities”. Besides, the oral availability result in data set [2] was “poor oral availability”.
Regarding `Cc1cnn(Cc2ccc(Cn3cc(C(=O)NCc4cnc5[nH]ccc5c4)cn3)cc2)c1` [Example 117, 1-[4-(4-Methyl-pyrazol-1-ylmethyl)-benzyl]-1H-pyrazole-4-carboxylic acid (1H-pyrrolo[2,3-b]pyridin-5-ylmethyl)-amide], the peak concentration (Cmax) in data set [1] stood at 0.098 µg/mL. In addition, in data set [1], the Tmax is 0.75 h. In addition, the IC50 against Factor XIIa is more than 10000 nM; on Human KLK1, more than 10 µM; at Human plasma kallikrein it was 0.078 µM.
For Ecallantide, in [3], the anaphylactic reactions result is reported as “anaphylactic reactions”.

One may read the Cmax as the maximum level reached in the sampled fluid or tissue. One may read the Tmax as the time from dosing to the highest level. Usually IC50 stands for the concentration at which inhibition is half-maximal.
